Data set [1] is described as follows: Solubility of the compound in phosphate buffer at pH 7.4. The format is physicochemical.
For a further data set, the system named is U-87MG ATCC. Briefly: Anticancer activity against NK1R overexpressing human U87MG cells assessed as cell viability after 72 hrs by MTT assay. It is filed as functional, cell-based.
The next data set deals with U-251. Briefly: Anticancer activity against NK1R overexpressing human U251MG cells assessed as cell viability after 72 hrs by MTT assay. The format is functional, cell-based. Background: Tetrazolium dyes change colour on reduction, which living cells bring about.
Another data set relates to MCF7. The data set can be described thus: Anticancer activity against NK1R overexpressing human MCF7 cells assessed as cell viability after 72 hrs by MTT assay. It is filed as functional, cell-based.
The subject of the next data set is MDA-MB-231. The data set can be described thus: Anticancer activity against NK1R overexpressing human MDA-MB-231 cells assessed as cell viability after 72 hrs by MTT assay. The format is functional, cell-based.
For data set [2], the system named is CHO. The data set can be described thus: Cytotoxicity against NK1R overexpressing CHO cells assessed as cell viability after 72 hrs by MTT assay. It is filed as functional, cell-based. The note with it: Cricetulus griseus.
In data set [3] the test system is CHO. Briefly: Cytotoxicity against CHO cells assessed as cell proliferation after 72 hrs by MTT assay. Particulars: chinese hamster. The format is cell-based, Cricetulus griseus.
Data set [4] relates to CHO. The data set can be described thus: Drug uptake in CHO cells at 10 uM after 30 mins by confocal microscopy. The format is ADME, cell-based, Cricetulus griseus. The note with it: chinese hamster, 0.5 h.
Data set [5] concerns CHO. Briefly: Drug uptake in NK1R overexpressing CHO cells at 10 uM after 30 mins by confocal microscopy. The format is ADME, cell-based, Cricetulus griseus. The note with it: chinese hamster, 0.5 h.
Data set [6] deals with CHO. The data set can be described thus: Cytotoxicity against CHO cells assessed as cell viability after 72 hrs by MTT assay. The format is cell-based, Cricetulus griseus. The note with it: chinese hamster.

For orientation: solubility means how much of the substance goes into solution per volume. The low end stands for a poorly soluble substance, the high end for a readily soluble substance.

Converted amounts (≈) assume the structure as drawn. The source made the active and inactive calls. The rule behind the calls is not given here. Non-standard residues stand in square brackets, D forms with d. Residues, ends and D or L forms follow the SMILES beside them. *: point of attachment. S(CH2)2OCO2(CPT-20-yl) = CC[C@@]1(OC(=O)OCCS*)C(=O)OCc2c1cc1n(c2=O)Cc2cc3ccccc3nc2-1; Ahx = NCCCCCC(=O)O

The compound `CC[C@@]1(OC(=O)OCCSSC[C@H](N)C(=O)N[C@@H](CCCNC(=N)N)C(=O)N2CCC[C@H]2C(=O)N[C@@H](CCCCN)C(=O)N2CCC[C@H]2C(=O)N[C@@H](CCC(N)=O)C(=O)N[C@@H](CCC(N)=O)C(=O)N[C@@H](Cc2ccccc2)C(=O)N[C@@H](Cc2ccccc2)C(=O)NCC(=O)N[C@@H](CC(C)C)C(=O)N[C@@H](CCSC)C(N)=O)C(=O)OCc2c1cc1n(c2=O)Cc2cc3ccccc3nc2-1` came in with a solubility in data set [1] of 103 µg/mL (≈ 54.2 µM). The Activity result in the data set with U-87MG ATCC was “Dose-dependent effect”; in the data set with U-251, “Dose-dependent effect”; in the data set on MCF7, “Dose-dependent effect”; in the data set on MDA-MB-231, “Dose-dependent effect”; in the data set on CHO [3], “Not Active”. The result with CHO [2] was Active. For the same compound, the Drug uptake result in the data set on CHO [4] and in the data set on CHO [5] was “Active” each time.

Turning to `CC[C@@]1(OC(=O)OCCSSC[C@H](N)C(=O)NCCCCCC(=O)N[C@@H](CCC(N)=O)C(=O)N[C@@H](Cc2ccccc2)C(=O)N[C@@H](Cc2ccccc2)C(=O)NCC(=O)N[C@@H](CC(C)C)C(=O)N[C@@H](CCSC)C(N)=O)C(=O)OCc2c1cc1n(c2=O)Cc2cc3ccccc3nc2-1` (H-C(S(CH2)2OCO2(CPT-20-yl))[Ahx]QFFGLM-NH2), the solubility in [1] turned out to be 8.4 µg/mL (≈ 5.97 µM). Besides, the Activity entry in the data set on U-87MG ATCC was “Dose-dependent effect”; in the data set on U-251, “Dose-dependent effect”; with MCF7 it was “Dose-dependent effect”; in the data set with MDA-MB-231 it was “Dose-dependent effect”; in the data set with CHO [3], “Not Active”. Also, the result in the data set with CHO [2] was Active. Also, the Drug uptake entry in the data set with CHO [4] and in the data set with CHO [5] was “Active” each time.

For `CC[C@@]1(O)C(=O)OCc2c1cc1n(c2=O)Cc2cc3ccccc3nc2-1` [CAMPTOTHECIN], the solubility in [1] stood at 2.7 µg/mL (≈ 7.75 µM). Further, the Activity result in the data set on U-87MG ATCC was “Dose-dependent effect”; in the data set with U-251, “Dose-dependent effect”; in the data set with MCF7, “Dose-dependent effect”; in the data set with MDA-MB-231 it was “Dose-dependent effect”; in the data set with CHO [6], “Toxic”. The Drug uptake result in the data set with CHO [4] and in the data set with CHO [5] was “Active” each time.

On to `CSCC[C@H](NC(=O)[C@H](CC(C)C)NC(=O)CNC(=O)[C@H](Cc1ccccc1)NC(=O)[C@H](Cc1ccccc1)NC(=O)[C@H](CCC(N)=O)NC(=O)CCCCCNC(=O)[C@@H](N)CS)C(N)=O` (H-C[Ahx]QFFGLM-NH2), for which the outcome with U-87MG ATCC, with U-251, in the data set with MCF7 and with MDA-MB-231 was inactive.
